Results: ChEMBL document CHEMBL1135331, “Synthesis and characterization of a new RXR agonist based on the 6-tert-butyl-1,1-dimethylindanyl structure” (Bioorg Med Chem Lett, 2002)

Biological target: T1, Retinoic acid receptor RXR-alpha (Homo sapiens, UniProt P19793)
T1 sequence (P19793 whole entry): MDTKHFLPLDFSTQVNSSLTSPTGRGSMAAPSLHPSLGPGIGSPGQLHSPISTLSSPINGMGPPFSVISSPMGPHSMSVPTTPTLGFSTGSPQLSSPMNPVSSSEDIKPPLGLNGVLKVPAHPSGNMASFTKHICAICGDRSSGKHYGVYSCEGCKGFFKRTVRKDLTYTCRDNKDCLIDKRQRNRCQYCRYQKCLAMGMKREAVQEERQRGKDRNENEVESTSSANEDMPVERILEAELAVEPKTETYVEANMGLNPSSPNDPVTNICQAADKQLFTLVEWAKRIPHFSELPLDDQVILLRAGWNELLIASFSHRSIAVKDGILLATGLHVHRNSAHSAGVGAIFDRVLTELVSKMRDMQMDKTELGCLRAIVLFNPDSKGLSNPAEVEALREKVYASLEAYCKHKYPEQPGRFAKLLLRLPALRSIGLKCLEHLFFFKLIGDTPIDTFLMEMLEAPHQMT
Test: Dissociation constant for binding to Retinoic acid receptor RXR-alpha

- Kd: 220 nM
Structure (SMILES): C=C(/C=C/C=C/C(=O)O)c1cc(C(C)(C)C)cc2c1CCC2(C)C
